Data published in ChEMBL document CHEMBL1156115, “The design of potent and selective inhibitors of DPP-4: optimization of ADME properties by amide replacements” (Bioorg Med Chem Lett, 2009).
Activity calls are given as the source filed them. No cut-off for these calls is given here.

Experiments:
[1] = molecular target: T1, Prolyl endopeptidase (Homo sapiens, UniProt P48147); test: Inhibition of human POP expressed in Escherichia coli after 30 mins by continuous fluorescent assay
T1 sequence (P48147 whole entry): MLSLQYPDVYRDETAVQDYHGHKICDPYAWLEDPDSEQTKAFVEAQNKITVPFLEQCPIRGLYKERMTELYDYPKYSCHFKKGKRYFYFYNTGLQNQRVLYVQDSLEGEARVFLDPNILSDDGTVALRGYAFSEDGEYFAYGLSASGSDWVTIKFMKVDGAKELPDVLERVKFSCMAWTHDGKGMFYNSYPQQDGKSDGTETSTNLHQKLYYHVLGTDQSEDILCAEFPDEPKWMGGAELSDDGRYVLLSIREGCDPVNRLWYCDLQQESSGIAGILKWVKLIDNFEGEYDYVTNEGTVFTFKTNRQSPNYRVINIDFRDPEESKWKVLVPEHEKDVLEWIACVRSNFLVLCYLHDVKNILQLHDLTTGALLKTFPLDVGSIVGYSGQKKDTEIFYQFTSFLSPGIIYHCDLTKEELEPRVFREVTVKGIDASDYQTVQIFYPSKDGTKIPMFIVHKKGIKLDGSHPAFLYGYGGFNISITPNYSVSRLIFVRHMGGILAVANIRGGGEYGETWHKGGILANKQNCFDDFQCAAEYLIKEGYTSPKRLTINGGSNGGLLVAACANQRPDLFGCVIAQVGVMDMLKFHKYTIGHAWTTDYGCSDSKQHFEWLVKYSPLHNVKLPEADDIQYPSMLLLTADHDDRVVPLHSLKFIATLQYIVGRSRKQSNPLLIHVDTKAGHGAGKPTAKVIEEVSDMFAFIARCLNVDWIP

[2] = molecular target: Dipeptidyl peptidase 2 (Homo sapiens, UniProt Q9UHL4); test: Inhibition of DPP7
[3] = (§1) Apparent permeability from apical to basolateral side of human Caco-2 cells; format: ADME, cell-based
[4] = (§2) Apparent permeability from basolateral to apical side of human Caco-2 cells; format: ADME, cell-based
[5] = Distribution coefficient, log D of the compound; format: physicochemical; conditions: octanol/water
[6] = Half life in rat liver microsomes at 3 uM; format: ADME, Microsome
[7] = Half life in human liver microsomes at 3 uM; format: ADME, Microsome
[8] = test system: Caco-2; test: as §1; format: ADME, cell-based
[9] = test system: Caco-2; test: as §2; format: ADME, cell-based
[10] = Clearance in Wistar rat at 1 mg/kg, iv or 3 mg/kg, po; format: ADME, organism-based; conditions: in vivo
[11] = Half life in Wistar rat at 1 mg/kg, iv or 3 mg/kg, po; format: ADME, organism-based; conditions: in vivo
[12] = molecular target: Dipeptidyl peptidase 4 (Mus musculus) (UniProt P28843); test: Inhibition of DPP4 in mouse plasma up to 60 mins; format: cell-free
Dipeptidyl peptidase 4 (Mus musculus), sequence (P28843 whole entry, looked up): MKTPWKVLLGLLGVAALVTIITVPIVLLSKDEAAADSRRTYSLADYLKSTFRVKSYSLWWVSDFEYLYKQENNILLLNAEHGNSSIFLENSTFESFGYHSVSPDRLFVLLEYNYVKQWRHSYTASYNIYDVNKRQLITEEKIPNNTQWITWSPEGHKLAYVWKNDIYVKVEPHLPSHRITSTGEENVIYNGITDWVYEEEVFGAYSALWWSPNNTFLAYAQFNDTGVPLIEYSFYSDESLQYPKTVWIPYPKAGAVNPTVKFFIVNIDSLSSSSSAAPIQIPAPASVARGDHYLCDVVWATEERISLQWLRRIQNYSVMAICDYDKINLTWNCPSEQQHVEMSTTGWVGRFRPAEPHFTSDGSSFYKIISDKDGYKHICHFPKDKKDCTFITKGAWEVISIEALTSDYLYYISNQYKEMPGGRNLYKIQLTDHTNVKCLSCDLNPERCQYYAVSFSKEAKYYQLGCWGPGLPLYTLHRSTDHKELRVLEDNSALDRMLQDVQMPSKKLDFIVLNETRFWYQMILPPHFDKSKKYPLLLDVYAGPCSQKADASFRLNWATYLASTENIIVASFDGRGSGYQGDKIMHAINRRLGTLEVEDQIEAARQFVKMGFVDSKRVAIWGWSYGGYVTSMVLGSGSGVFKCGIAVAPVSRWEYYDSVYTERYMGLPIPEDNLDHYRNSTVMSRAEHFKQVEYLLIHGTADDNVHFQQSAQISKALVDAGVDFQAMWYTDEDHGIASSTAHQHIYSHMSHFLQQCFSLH

[13] = Oral bioavailability in Wistar rat at 3 mg/kg; format: ADME, organism-based; conditions: in vivo
[14] = Apparent volume of distribution in Wistar rat at 1 mg/kg, iv or 3 mg/kg, po; format: ADME, organism-based; conditions: in vivo, read-out: Vz
[15] = molecular target: Dipeptidyl peptidase 4 (Mus musculus) (UniProt P28843); test: Inhibition of DPP4 in mouse plasma up to 180 mins; format: cell-free
[16] = test system: Mus musculus; test: Antihyperglycemic activity in obese mouse diabetic model assessed as reduction in peak glucose excursion at 3 mg/kg, po administered 30 mins before glucose challenge by oral glucose tolerance test; format: functional, organism-based; set-up: dose 3 mg/kg

Row | IC50 [1] [µM] | IC50 [2] [µM] | logD [5] | half-life at 3 µM [6] [h] | half-life at 3 µM [7] [h] | Structure (SMILES) | also measured
1 | > 100 | 5.6 |  |  |  | N[C@@H](CC(=O)N1CCC[C@H]1c1nc(N2CCOCC2)no1)Cc1cc(F)c(F)cc1F | 
2 |  | 3.8 | 1.61 | 1.18 | > 2 | N[C@@H](CC(=O)N1CCC[C@H]1c1nc(C2CC2)no1)Cc1cc(F)c(F)cc1F | Papp A→B [3]: 21 ×10⁻⁶ cm/s; Papp B→A [4]: 52 ×10⁻⁶ cm/s
3 | > 100 | 11 |  |  |  | N[C@@H](CC(=O)N1CCC[C@H]1c1noc(C2CC2)n1)Cc1cc(F)c(F)cc1F | 
4 |  | 3.8 | 0.96 | > 2 | > 2 | CS(=O)(=O)N1CC(c2noc([C@@H]3CCCN3C(=O)C[C@H](N)Cc3cc(F)c(F)cc3F)n2)C1 | Papp [8]: 0.15 ×10⁻⁶ cm/s; Papp [9]: 28 ×10⁻⁶ cm/s
5 | > 100 | 2.3 |  |  |  | N[C@@H](CC(=O)N1CCC[C@H]1c1nc(-c2cnccn2)no1)Cc1cc(F)c(F)cc1F | 
6 | > 100 | 36 |  |  |  | CC(C)(C)c1nc([C@@H]2CCCN2C(=O)C[C@H](N)Cc2cc(F)c(F)cc2F)no1 | 
7 | > 100 | 16 | 1.46 | 1.7 | > 2 | CC(C)(F)c1nc([C@@H]2CCCN2C(=O)C[C@H](N)Cc2cc(F)c(F)cc2F)no1 | Papp A→B [3]: 14 ×10⁻⁶ cm/s; clearance [10]: 31.7 mL/min/kg; Papp B→A [4]: 62 ×10⁻⁶ cm/s; half-life [11]: 1 h; inhibition [12]: 70%; bioavailability [13]: 100%; Vd [14]: 2.9 L/kg; inhibition [15]: 56%; Activity [16]: Active
8 | 39 | 7 | 1.85 | 0.133 | 1.33 | CC(C)(C)c1noc([C@@H]2CCCN2C(=O)C[C@H](N)Cc2cc(F)c(F)cc2F)n1 | Papp A→B [3]: 20 ×10⁻⁶ cm/s; clearance [10]: 120 mL/min/kg; Papp B→A [4]: 49 ×10⁻⁶ cm/s; half-life [11]: 1.6 h; bioavailability [13]: 3%; Vd [14]: 20.5 L/kg
9 | > 100 | 38 |  |  |  | CC1(c2nc([C@@H]3CCCN3C(=O)C[C@H](N)Cc3cc(F)c(F)cc3F)no2)COC1 | 
10 | > 100 | 4 |  |  |  | N[C@@H](CC(=O)N1CCC[C@H]1c1nc(CC2CC2)no1)Cc1cc(F)c(F)cc1F | 
11 |  | 0.886 |  |  |  | N[C@@H](CC(=O)N1CCC[C@H]1c1nc(-c2ccccn2)no1)Cc1cc(F)c(F)cc1F | 
12 |  | 14 |  |  |  | N[C@@H](CC(=O)N1CCC[C@H]1c1noc(C2(F)CC2)n1)Cc1cc(F)c(F)cc1F | 
13 | > 100 | 2 | 1.32 | > 2 | > 2 | N[C@@H](CC(=O)N1CCC[C@H]1c1nc(-c2ncc(F)cc2F)no1)Cc1cc(F)c(F)cc1F | Papp A→B [3]: 3 ×10⁻⁶ cm/s; clearance [10]: 100 mL/min/kg; Papp B→A [4]: 73 ×10⁻⁶ cm/s; half-life [11]: 2.4 h; inhibition [12]: 79%; bioavailability [13]: 56%; Vd [14]: 17.7 L/kg; inhibition [15]: 64%; Activity [16]: Active
14 |  | 10 | 2.16 | 1 | > 2 | N[C@@H](CC(=O)N1CCC[C@H]1c1noc(C2(C(F)(F)F)CC2)n1)Cc1cc(F)c(F)cc1F | Papp A→B [3]: 23 ×10⁻⁶ cm/s; clearance [10]: 115 mL/min/kg; Papp B→A [4]: 49 ×10⁻⁶ cm/s; half-life [11]: 2.3 h; bioavailability [13]: 43%; Vd [14]: 17.5 L/kg
15 |  | 2.8 |  |  |  | N[C@@H](CC(=O)N1CCC[C@H]1c1nc(C2(C(F)(F)F)CC2)no1)Cc1cc(F)c(F)cc1F | 
16 |  | 23 |  |  |  | N[C@@H](CC(=O)N1CCC[C@H]1c1noc(C2(O)CC2)n1)Cc1cc(F)c(F)cc1F | 
17 |  | 2.2 |  |  |  | N[C@@H](CC(=O)N1CCC[C@H]1c1nc(-c2ncccn2)no1)Cc1cc(F)c(F)cc1F | 
18 |  | 17 |  |  |  | CC(=O)N1CC(c2noc([C@@H]3CCCN3C(=O)C[C@H](N)Cc3cc(F)c(F)cc3F)n2)C1 | 
19 | > 100 | 3.2 |  |  |  | N[C@@H](CC(=O)N1CCC[C@H]1c1nc(N2CCCC2)no1)Cc1cc(F)c(F)cc1F | 
